According to patent US8926961B2, “HPV E6 protein T cell epitopes and uses thereof” (Board Of Trustees of The University Of Arkansas, priority 2007, dated 2015):

Assays:
[1] = test system: peptide-pulsed Epstein-Barr Virus-transformed B-lymphoblastoid cell line cells; assay: Chromium release assay, subject 18 T-cell clones as effectors; assay type: cell-based, human; conditions: clones #83-18 and #87-18
Procedure: (§1) To identify putative restricting Human Leukocyte Antigen class I molecule, enzyme-linked immunospot assays were performed, as described above, using autologous Epstein-Barr Virus-transformed B-lymphoblastoid cell line cells sharing one or a few class I molecules with the subjects. The results were confirmed using chromium release assays in which at least two autologous Epstein-Barr Virus-transformed B-lymphoblastoid cell line cells expressing the putative Human Leukocyte Antigen class I molecule were tested. The Epstein-Barr Virus-transformed B-lymphoblastoid cell line cells were labeled with 100 μCi of sodium chromate (Na2^51CrO4), and were incubated with 10 μM of positive peptide. After plating the cells in 96-wells plate at 3×10^3/well, effector cells were added at multiple effector to target cell (E:T) ratios. After 5 hr of incubation, the supernatants were harvested and radioactivity was counted with a gamma counter (Packard Instruments, Meriden, Conn.). Percentage specific lysis was calculated as described (39).

[2] = test system: HPV 16 E6 peptide-specific T-cell clones (subject 18); assay type: cell-based, human; conditions: eight screen-positive T-cell clones of subject 18; HPV16 E6 121-145 region; 10 μM
CD8 T-cell = assay: ELISPOT assay of CD8 T-cell responses in women followed for abnormal Pap smear; assay type: cell-based, human; conditions: women with abnormal Pap smear
Procedure: Women who were followed, but untreated for abnormal Pap smear results, were enrolled. HPV-DNA testing using the Linear Array HPV Geotyping Test (Roche Diagnostics, Indianapolis, Ind.) and enzyme-linked immunospot (ELISPOT) assay using the HPV 16 E6 and E7 antigens were performed. The subjects were categorized into three groups: regressor (n=32), persistor/progressor (n=33), or indeterminate (n=20) based on comparisons of pathological diagnoses (Pap smear or biopsy) between the last clinic visit and the current clinic visit at which blood samples were collected.

[3] = test system: Human Leukocyte Antigen class I molecule; assay: Identification of the restricting Human Leukocyte Antigen molecules; assay type: cell-based
Procedure: as §1

[4] = test system: peptide-pulsed Epstein-Barr Virus-transformed B-lymphoblastoid cell line cells; assay: Chromium release assay, subject 2 T-cell clones as effectors; assay type: cell-based, human; conditions: clones #76-2 and #78-2; three allogeneic B-LCL expressing HLA-B62; 10 μM peptide
Procedure: as §1

[5] = test system: HPV 16 E6 peptide-specific T-cell clones (subject 2); assay type: cell-based, human
CD4+ T-cell = assay: Interferon-γ ELISPOT assay of CD4+ T-cell responses in subjects with abnormal Pap smear; assay type: cell-based, human
Procedure: The role of CD4+ T-cell responses to the HPV-16 E6 and E7 proteins was examined in the outcomes of subjects being studied for abnormal Papanicolaouu (Pap) smear results. Subjects with a recent history of abnormal Papanicolaouu smear were eligible, and colposcopy guided biopsy was performed at enrollment. Interferon-γ enzyme-linked immunospot assay, and fluorescent activated cell sorter analysis were performed. Subjects with histological diagnoses of cervical intraepithelial neoplasia 1, 2, or 3 were considered to have short-term persistence of cervical abnormality and were called “persistors” (n=51) while those of normal histology were designated to be “regressors” (n=33). For the CD4+ T-cell responses, not only were the responses to E6 overall (Table 8) associated with a favorable clinical outcome, but also to a number of regions within the E6 protein. Furthermore, the regressors were more likely to have 2 or more E6-positive or E7-positive peptide regions as compared to the persistors (p=0.0035 or p=0.042 respectively) (Table 9).

[6] = test system: Human Leukocyte Antigen-matched HPV16 E7 11-20-pulsed targets; conditions: cited from earlier work
[7] = high-risk HPV-positive subjects
[8] = subjects positive for HPV-16 related types

E6 131-145: 15-mer peptide in the HPV16 E6 121-145 region (RFHNIRGRWTGRCMS; UniProt P03126 131-145, looked up, fragment)
chromium release assay result ([1]; autologous B-LCL and B-LCL expressing A68 or A6801): positive
chromium release assay result ([1]; other allogeneic B-LCL including HLA-6802): negative
enzyme-linked immunospot response to individual 15-mer peptides [2]: positive

EPDRAHYNIVTFCCKCDSTLRLCVQ (E7 46-70 peptide from immunodominant epitope region of Human Papilloma Virus 16 E7 protein) [SEQ ID NO. 30]
Responses (number of immune responses detected towards the region) (CD8 T-cell): 10

KFYSKISEY (E6 75-83 peptide from immunodominant epitope region of Human Papilloma Virus 16 E6 protein) [SEQ ID NO. 1]
Human Leukocyte Antigen Restriction Element [3]: HLA-B62
lysis of peptide-pulsed B-LCL in chromium release assay [4]: lysed
serial dilution of the two peptides in enzyme-linked immunospot assay ([5]; 10^−5M to 10^−10M): equivalent
recognition of peptide-pulsed B-LCL by E6 75-83-specific T cell clones ([5]; clones #76-2 and #78-2, autologous and five allogeneic HLA-B62 B-LCL, 10 μM): recognized
number of spot forming units, 9-mer compared with surrounding 10-mers and 8-mers within ([5]; subject 2 T-cell clones): comparable number of spot forming units
spot forming units per well, series of 9-mer peptides within E6 71-85 ([5]; subject 2 T-cell clones): most number of spot forming units per well

RREVYDFAFRDLCIVYRDGNPYAVC (E6 46-70 peptide from immunodominant epitope region of Human Papilloma Virus 16 E6 protein) [SEQ ID NO. 31]
Responses (number of immune responses detected towards the region) (CD8 T-cell): 8

YGTTLEQQYNKPLCDLLIRCINCQK (E6 91-115 peptide from immunodominant epitope region of Human Papilloma Virus 16 E6 protein) [SEQ ID NO. 29]
Responses (number of immune responses detected towards the region) (CD8 T-cell): 11
CD4+ T-cell responses, persistors (CD4+ T-cell; all subjects): 2%
CD4+ T-cell responses, regressors (CD4+ T-cell; all subjects): 18%
CD4+ T-cell responses, persistors (CD4+ T-cell; [7]): 2%
CD4+ T-cell responses, regressors (CD4+ T-cell; [7]): 23%
CD4+ T-cell responses, persistors (CD4+ T-cell; [8]): 0%
CD4+ T-cell responses, regressors (CD4+ T-cell; [8]): 22%

YMLDLQPETT [SEQ ID NO. 26]
patients whose cytotoxic T lymphocytes lysed peptide-pulsed targets ([6]; cervical cancer patients): two of three patients
Human Leukocyte Antigen restriction [6]: Human Leukocyte Antigen-A2
